Source: US20080045537A1, “Chemical Compounds” (priority 2004, published 2008)

tested on: HIV-1 IIIB (T-tropic, CXCR4 utilizing); assay: HOS HIV-1 infectivity assay; format: cell-based; conditions: Human immunodeficiency virus 1, IIIB; as determined by the infectivity assay; strain not stated in Table 2; read-out: Activity Level
Protocol: Compounds were profiled against two HIV-1 viruses, the M-tropic (CCR5 utilizing) Ba-L strain and the T-tropic (CXCR4 utilizing) IIIB strain. Both viruses were propagated in human peripheral blood lymphocytes. Compounds were tested for there ability to block infection of the HOS cell line (expressing hCXCR4/hCCR5/hCD4/pHIV-LTR-luciferase) by either HIV-1 Ba-L or HIV-1 IIIB. Compound cytotoxicity was also examined in the absence of virus addition.
HOS cells (expressing hCXCR4/hCCR5/hCD4/pHIV-LTR-luciferase) were harvested and diluted in Dulbeccos modified Eagles media supplemented with 2% FCS and non-essential amino acid to a concentration of 60,000 cells/ml. The cells were plated into 96-well plates (100 ul per well) and the plates were placed in a tissue culture incubator (37° C.; 5% CO2/95% air) for a period of 24 h.
Subsequently, 50 ul of the desired drug solution (4 times the final concentration) was added to each well and the plates were returned to the tissue culture incubator (37° C.; 5% CO2/95% air) for 1 h. Following this incubation 50 ul of diluted virus was added to each well (approximately 2 million RLU per well of virus). The plates were returned to the tissue culture incubator (37° C.; 5% CO2/95% air) and were incubated for a further 96 h.
Following this incubation the endpoint for the virally infected cultures was quantified following addition of Steady-Glo Luciferase assay system reagent (Promega, Madison, Wis.). Cell viability or non-infected cultures was measured using a CellTiter-Glo luminescent cell viability assay system (Promega, Madison, Wis.). All luminescent readouts are performed on a Topcount luminescence detector (Packard, Meridien, Conn.).

IC50 [nM]	SMILES
< 100	CN(C)CCN(C)c1cccc2[nH]c(CN(C)C3CCCc4cccnc43)nc12 (stereo not drawn) [Example 109, [2-(Dimethylamino)ethyl]methyl(2-{[methyl(5,6,7,8-tetrahydro-8-quinolinyl)amino]methyl}-1H-benzimidazol-4-yl)amine]
100 to 500	CC(=O)N1CCN(c2cccc3[nH]c(CN(C)C4CCCc5cccnc54)nc23)CC1 (stereo not drawn) [Example 110, N-{[4-(4-Acetyl-1-piperazinyl)-1H-benzimidazol-2-yl]methyl}-N-methyl-5,6,7,8-tetrahydro-8-quinolinamine]
< 100	CC(C)N1CCN(c2cccc3[nH]c(CN(C(C)C)C4CCCc5cccnc54)nc23)CC1 (stereo not drawn) [Example 113, N-(1-methylethyl)-N-({4-[4-(1-methylethyl)-piperazinyl]-1H-benzimidazol-2-yl}methyl)-5,6,7,8-tetrahydro-8-quinolinamine]
< 100	CN1CCN(c2cccc3nc(C(C)(C)NC4CCCc5cccnc54)[nH]c23)CC1 (stereo not drawn) [Example 114, N-{1-methyl-1-[4-(4-methyl-1-piperazinyl)-1H-benzimidazol-2-yl]ethyl}-5,6,7,8-tetrahydro-8-quinolinamine]
< 100	CN1CCN(c2cccc3nc(C(C)(C)N(C)C4CCCc5cccnc54)[nH]c23)CC1 (stereo not drawn) [Example 115, N-Methyl-N-{1-methyl-1-[4-(4-methyl-1-piperazinyl)-1H-benzimidazol-2-yl]ethyl}-5,6,7,8-tetrahydro-8-quinolinamine]
< 100	CN1CCN(c2cccc3nc(CN(C)[C@H]4CCCc5cccnc54)[nH]c23)CC1 [Example 133B, (8S)—N-Methyl-N-{[4-(4-methyl-1-piperazinyl)-1H-benzimidazol-2-yl]methyl}-5,6,7,8-tetrahydro-8-quinolinamine]
< 100	CCN(Cc1nc2cccc(N3CCN(C)CC3)c2[nH]1)[C@H]1CCCc2cccnc21 [Example 135, (8S)—N-Ethyl-N-{[4-(4-methyl-1-piperazinyl)-1H-benzimidazol-2-yl]methyl}-5,6,7,8-tetrahydro-8-quinolinamine]
< 100	CCCN(Cc1nc2cccc(N3CCN(C)CC3)c2[nH]1)[C@H]1CCCc2cccnc21 [Example 137, (8S)—N-{[4-(4-methyl-1-piperazinyl)-1H-benzimidazol-2-yl]methyl}-N-propyl-5,6,7,8-tetrahydro-8-quinolinamine]
< 100	CC(C)N(Cc1nc2cccc(N3CCN(C)CC3)c2[nH]1)[C@H]1CCCc2cccnc21 [Example 138, (8S)—N-(1-Methylethyl)-N-{[4-(4-methyl-1-piperazinyl)-1H-benzimidazol-2-yl]methyl}-5,6,7,8-tetrahydro-8-quinolinamine]
< 100	CN1CCN(c2cccc3nc(CN(CC4CC4)[C@@H]4CCCc5cccnc54)[nH]c23)CC1 [Example 139, (8R)—N-(Cyclopropylmethyl)-N-{[4-(4-methyl-1-piperazinyl)-1H-benzimidazol-2-yl]methyl}-5,6,7,8-tetrahydro-8-quinolinamine]
< 100	CN(Cc1nc2cccc(N3CCN4CCC[C@@H]4C3)c2[nH]1)[C@H]1CCCc2cccnc21 [Example 141, (8S)—N-({4-[(8aR)-hexahydropyrrolo[1,2-a]pyrazin-2(1H)-yl]-1H-benzimidazol-2-yl}methyl)-N-methyl-5,6,7,8-tetrahydro-8-quinolinamine]
< 100	CCN(Cc1nc2cccc(N3CCN4CCC[C@@H]4C3)c2[nH]1)[C@H]1CCCc2cccnc21 [Example 142, (8S)—N-Ethyl-N-({4-[(8aR)-hexahydropyrrolo[1,2-a]pyrazin-2(1H)-yl]-1H-benzimidazol-2-yl}methyl)-5,6,7,8-tetrahydro-8-quinolinamine]
< 100	CN1C[C@H]2C[C@H](C1)CN(c1cccc3nc(CN(C)[C@H]4CCCc5cccnc54)[nH]c13)C2 [Example 144, (8S)—N-methyl-N-({4-[(1R,5R)-7-methyl-3,7-diazabicyclo[3.3.1]non-3-yl]-1H-benzimidazol-2-yl}methyl)-5,6,7,8-tetrahydro-8-quinolinamine]
< 100	CN1CCN(c2cccc3nc(CN(CCOCc4ccccc4)[C@H]4CCCc5cccnc54)[nH]c23)CC1 [Example 147]
< 100	CN1CCN(c2cccc3nc(CN(CCCO)[C@H]4CCCc5cccnc54)[nH]c23)CC1 [Example 149, 3-{{[4-(4-Methyl-1-piperazinyl)-1H-benzimidazol-2-yl]methyl}[(8S)-5,6,7,8-tetrahydro-8-quinolinyl]amino}-1-propanol]

Second part, the compound before the results:

SMILES	IC50 [nM]
CN(C)CCCNc1cccc2[nH]c(CN(C)C3CCCc4cccnc43)nc12 (stereo not drawn) [Example 106, [3-(Dimethylamino)propyl](2-{[methyl(5,6,7,8-tetrahydro-8-quinolinyl)amino]methyl}-1H-benzimidazol-4-yl)amine]	100 to 500
CN(C)CCNc1cccc2[nH]c(CN(C)C3CCCc4cccnc43)nc12 (stereo not drawn) [Example 107, [2-(Dimethylamino)ethyl](2-{[methyl(5,6,7,8-tetrahydro-8-quinolinyl)amino]methyl}-1H-benzimidazol-4-yl)amine]	< 100
CNCCN(C)c1cccc2[nH]c(CN(C)C3CCCc4cccnc43)nc12 (stereo not drawn) [Example 108, Methyl[2-(methylamino)ethyl](2-{[methyl(5,6,7,8-tetrahydro-8-quinolinyl)amino]methyl}-1H-benzimidazol-4-yl)amine]	< 100
CC(C)N1CCN(c2cccc3[nH]c(CN(C)C4CCCc5cccnc54)nc23)CC1 (stereo not drawn) [Example 111, N-Methyl-N-({4-[4-(1-methylethyl)-1piperazinyl]-1H-benzimidazol-2-yl}methyl)-5,6,7,8-tetrahydro-8-quinolinamine]	< 100
CC(C)N(Cc1nc2c(N3CCN(C)CC3)cccc2[nH]1)C1CCCc2cccnc21 (stereo not drawn) [Example 112, N-(1-Methylethyl)-N-{[4-(4-methyl-1-piperazinyl)-1H-benzimidazol-2-yl]methyl}-5,6,7,8-tetrahydro-8-quinolinamine]	< 100
CN(Cc1nc2c(N3CCN(C(=O)CN)CC3)cccc2[nH]1)C1CCCc2cccnc21 (stereo not drawn) [Example 116, N-({4-[4-(Aminoacetyl)-1-piperazinyl]-1H-benzimidazol-2-yl}methyl)-N-methyl-5,6,7,8-tetrahydro-8-quinolinamine]	< 100
CN(Cc1nc2c(N3CCN(C(=O)c4ccccn4)CC3)cccc2[nH]1)C1CCCc2cccnc21 (stereo not drawn) [Example 117, N-Methyl-N-({4-[4-(2-pyridinylcarbonyl)-1-piperazinyl]-1H-benzimidazol-2-yl}methyl)-5,6,7,8-tetrahydro-8-quinolinamine]	100 to 500
CN1CCN(c2cccc3nc(CN(C)[C@@H]4CCCc5cccnc54)[nH]c23)CC1 [Example 133A, (8R)—N-Methyl-N-{[4-(4-methyl-1-piperazinyl)-1H-benzimidazol-2-yl]methyl}-5,6,7,8-tetrahydro-8-quinolinamine]	< 100
CCN(Cc1nc2cccc(N3CCN(C)CC3)c2[nH]1)[C@@H]1CCCc2cccnc21 [Example 134, (8R)—N-Ethyl-N-{[4-(4-methyl-1-piperazinyl)-1H-benzimidazol-2-yl]methyl}-5,6,7,8-tetrahydro-8-quinolinamine]	< 100
CCCN(Cc1nc2cccc(N3CCN(C)CC3)c2[nH]1)[C@@H]1CCCc2cccnc21 [Example 136, (8R)—N-{[4-(4-methyl-1-piperazinyl)-1H-benzimidazol-2-yl]methyl}-N-propyl-5,6,7,8-tetrahydro-8-quinolinamine]	< 100
CN1CCN(c2cccc3nc(CN(CC4CC4)[C@H]4CCCc5cccnc54)[nH]c23)CC1 [Example 140, (8S)—N-(Cyclopropylmethyl)-N-{[4-(4-methyl-1-piperazinyl)-1H-benzimidazol-2-yl]methyl}-5,6,7,8-tetrahydro-8-quinolinamine]	< 100
CCCN(Cc1nc2cccc(N3CCN4CCC[C@@H]4C3)c2[nH]1)[C@H]1CCCc2cccnc21 [Example 143, (8S)—N-({4-[(8aR)-hexahydropyrrolo[1,2-a]pyrazin-2(1H)-yl]-1H-benzimidazol-2-yl}methyl)-N-propyl-5,6,7,8-tetrahydro-8-quinolinamine]	< 100
CN1CCN(c2cccc3nc(CN(C4CC4)C4CCCc5cccnc54)[nH]c23)CC1 (stereo not drawn) [Example 145, N-Cyclopropyl-N-{[4-(4-methyl-1-piperazinyl)-1H-benzimidazol-2-yl]methyl}-5,6,7,8-tetrahydro-8-quinolinamine]	< 100
COc1ccc([C@H](C)N(Cc2nc3cccc(N4CCN(C)CC4)c3[nH]2)[C@H]2CCCc3cccnc32)cc1 [Example 146, (8S)—N-{(1S)-1-[4-(methyloxy)phenyl]ethyl}-N-{[4-(4-methyl-1-piperazinyl)-1H-benzimidazol-2-yl]methyl}-5,6,7,8-tetrahydro-8-quinolinamine]	< 100
CN1CCN(c2cccc3nc(CN(CCO)[C@H]4CCCc5cccnc54)[nH]c23)CC1 [Example 148, 2-{{[4-(4-Methyl-1-piperazinyl)-1H-benzimidazol-2-yl]methyl}[(8S)-5,6,7,8-tetrahydro-8-quinolinyl]amino}ethanol]	< 100
